Source: patent US4900727A, “4H-1-benzopyran-4-one compounds which have anti-inflamatory or immunodulating action” (Hoechst Aktiengesellschaft, priority 1986, dated 1990)
Structures can show the parent of a compound that is named as a salt.

Assays:
[1] = tested on: carrageenin-induced paw edema in rats; experiment: Systemic anti-inflammatory action on carrageenin-induced paw edema in rats; type: in vivo, male Charles Foster rats; details: Rattus norvegicus, po; decrease in paw volume, 3 and 6 hours after carrageenin; from dose/response curve; read-out: ED50
Procedure: Male Charles Foster rats (120-150 g) were fasted for 18 hours, with water ad libitum. The test compound dissolved in distilled water was administered orally. The control group received distilled water. 0/05 ml of 0.5% carrageenin suspension was injected subcutaneously into the plantar region of the left hind paw. Using a Maclab differential volume meter, the paw volume was determined before the carrageenin injection and 3 and 6 hours after the injection. The percentage decrease in paw volume was calculated by the following equation: [formula] The ED50 value was calculated from the dose/response curve. Six animals were used for each group. The results with representative compounds according to the invention and their salts are listed in Table 4, the substituents relating to the following formula Ia: [drawing 11]

[2] = tested on: reverse passive Arthus reaction (RPA) in rats; experiment: Reverse passive Arthus reaction (RPA) in rats; type: in vivo, Charles Foster rats of both sexes; details: Rattus norvegicus, po, 4 h, one hour before RPA, edema vs untreated control
Procedure: Charles Foster rats of both sexes, weighing 150-180 g, were sorted into groups of six animals each. 24 hours before the initiation of the RPA, the rats were shaved from the mid-dorsal region and fasted overnight. The test compounds were administered orally one hour before inducing the Arthus reaction. The RPA reaction was induced by intradermal injection of 0.1 ml of appropriately diluted rabbit anti-BSA serum. Immediately after the intradermal exposure, each rat received 0.5 ml of 0.4% bovine serum albumin intraveneously. Four hours after the intradermal challenge, each group of animals was killed by cervical dislocation. The full thickness of the skin was removed from the back of each animal, and a 12 mm diameter disk was punched out with a metal punch from the site of the antiserum injection. The wet weight of each skin site was determined as soon as possible. The edema caused by the RPA was measured as the difference (expressed in mg) between the wet weight of the site injected with antibody and that injected with normal rabbit serum. The results are expressed as the percentage inhibition or potentiation of the edema by the compound as compared with the edema induced in the untreated control animals.

CCCc1cc(=O)c2c(O)cc(O)c(C3CCN(C)CC3O)c2o1 (single isomer, unassigned; (-)) [(-) n-C3 H7 H CH3 HCl.H2 O, cis-(-)-5,7-dihydroxy-2-n-propyl-8-[4'-(3'-hydroxy-1'-methyl)-piperidinyl]-4H-1-benzopyran-4-one]
ED50 [1]: 5.8 mg/kg
inhibition in vivo at 2.5 mg/kg ([2]; dose 2.5 mg/kg p.o.): 42.7%
inhibition in vivo at 5 mg/kg ([2]; dose 5.0 mg/kg p.o.): 41.3%
inhibition in vivo at 10 mg/kg ([2]; dose 10.0 mg/kg p.o.): 63.7%
inhibition in vivo at 20 mg/kg ([2]; dose 20.0 mg/kg p.o.): 72.1%
